Results taken from patent EP3797781A1, “USE OF EC-7072 AND SYNERGIC COMPOSITIONS THEREOF IN TREATMENT OF CHRONIC LYMPHOCYTIC LEUKEMIA” (priority 2019, dated 2021).

Experiments:
HK-2 cells = experiment: Cell death of HK-2 cells by PI staining; format: cell-based, human; settings: 200 nM, 24 hours; n = 3
Experimental: Effectiveness of EC-7072 against different B-cell malignancies was assessed by; • (i) incubating primary fibroblasts from healthy donors (n = 4) and HK-2 cells from healthy human adult kidney (n = 3) following treatment with MTA (200 nM) or EC-7072 (200 nM) for 24 hours. Cell death was evaluated by PI staining to obtain the percentages corresponding to the [PI^+] subset (Figure 5A) and the mean percentage of [PI^+] cells (Figure 5B); • (ii) treating MEC-1, GRANTA-519, Z-138, JVM-2, CA-46, Ramos, Raji and U266 cell lines (n = 3) following treatment with EC-7072 (500 nM) followed by incubation for 24 hours. Cell viability was assessed by DiOC6(3)/PI staining and normalized to control (DMSO) condition to obtain mean percentage of viable [DiOC6(3)^+] cells (Figure 5C).

[1] = system: isolated leukemia cells from patients with CLL; experiment: qPCR analysis of gene expression in isolated leukemia cells; format: cell-based, human; settings: 6 hours
Experimental: Isolated leukemia cells from patients with CLL were incubated with EC-7072 (200 nM) or DMSO for 6 hours. Total RNA was extracted using RNeasy Mini Kit (Qiagen). 2 µg total RNA were used for cDNA synthesis using High-Capacity cDNA Reverse Transcription Kit (Applied Biosystems). Quantitative RT-PCR was performed using SYBR Green PCR Master Mix (Applied Biosystems) in a 7300 Real-Time PCR System and each sample was analyzed in triplicate. Table 1. Primers used in qPCR
Expression of BCR-related genes was analyzed by qPCR in isolated CLL leukemia cells (n = 6) exposed to 200 nM EC-7072 for 6 hours (Figure 6A).
Expression of relevant genes that regulate apoptosis in CLL was analyzed by qPCR in isolated leukemia cells from patients with CLL (n = 6) exposed to 200 nM EC-7072 for 6 hours, to obtain the mean relative expression to the control (DMSO) control condition (Figure 6D).
The dysregulation of BCL2 expression in primary CLL by EC-7072 was evaluated by: • (i) incubating isolated CLL cells (n = 6) from patients with CLL following treatment with EC-7072 (200 nM) for 6 hours and extracting total RNA. Relative expression of BLC2 was determined by qPCR to obtain the mean relative expression to the control (DMSO) condition (Figure 6F); • (ii) incubating isolated CLL cells (n = 6) following treatment with 200 nM EC-7072 for 12 and 18 hours. BCL2 levels were evaluated by intracellular flow cytometry (Figure 6G); • (iii) incubating isolated T cells (n = 3) from patients with CLL following treatment with EC-7072 (200 nM) for 6 hours and extracting total RNA. Relative expression of BLC2 was determined by qPCR to obtain the mean relative expression to the control (DMSO) condition (Figure 6H); • (iv) incubating PBMCs (Figure 6I) and isolated T cells (Figure 6J) from patients with CLL (n = 3) following treatment with 200 nM EC-7072 for 24 hours. T-cell death and apoptosis were assessed by DiOC6(3)/PI staining to obtain percentages of viable [DiOC6(3)^+] cells and the mean percentages of apoptotic [DiOC6(3)^low PI^-] and dead [PI^+] cells. […]

CO[C@@H]([C@@H]1Cc2cc3cc(O[C@H]4C[C@@H](O[C@H]5C[C@@H](O)[C@H](O)[C@@H](C)O5)[C@H](O)[C@@H](C)O4)c(C)c(O)c3c(O)c2C(=O)[C@H]1O[C@H]1C[C@@H](O[C@H]2C[C@@H](O[C@H]3C[C@](C)(O)[C@H](O)[C@@H](C)O3)[C@@H](O)[C@@H](C)O2)[C@H](O)[C@@H](C)O1)[C@@H](O)C(C)=O [EC-7072, mithramycin SK]
viability of HK-2 cells (PI^+ cells) (HK-2 cells): did not markedly affect the viability
expression of genes required for functional BCR signaling (CD79B, SYK, LYN, PIK3CD, PLCG2, CARD11) ([1]; 200 nM, RNA-seq, validated by qPCR (n = 6)): broad downregulation
gene expression of BCL2 ([1]; 200 nM, isolated CLL cells (n = 6)): significantly downregulated
expression of BCL2 upon BCR activation ([1]; EC-7072 200 nM in combination with α-IgM (10 µg/mL), n = 4): restore the expression of BCL2 to basal levels
